# Measured values from US20070202185A1, “Microencapsulated Delivery Vehicles Having Fugitive Layers” (KIMBERLY-CLARK WORLDWIDE, INC., priority 2005, published 2007).
# Where two headings read alike, the source gives them in different places.
# Test system: Methicillin-resistant Staphylococcus aureus
# Settings: 0.005% PHMB versus no PHMB
# Procedure: This Example utilized 1.5-milliliter tubes containing a 1-milliliter blend of phosphate-buffered saline (pH 7.2) and 5% (w/v) bovine serum albumin soil. The tubes were placed in electric heat blocks set for 22° C., 30° C., 40° C. and 50° C., respectively. The tubes remained in the electric heat blocks for approximately 10 minutes.
# After 10 minutes, 0.005% (by weight) active polyhexamehtylene biguanide (PHMB) (commercially available as Cosmocil® CQ from Arch Biocides, Inc., United Kingdom) was added to two tubes at each temperature level. Duplicate tubes without PHMB at each temperature were also made.
# The tubes were then vortexed and Methicillin-resistant Staphylococcus aureus (approximately 1×10^5 colony forming units (CFU)) was then added to each tube. All of the tubes were then placed back into the heat blocks at their respective temperatures.
# Following a 10-minute contact time, 0.1 milliliters of each sample was transferred to 0.9 milliliters letheen broth to neutralize the PHMB activity. The letheen samples were then plated in duplicate on Tryptic Soy agar plates using a WASP2 spiral plater (commercially available from Don Whitley Scientific, Ltd., Yorkshire, United Kingdom). The plates were inverted and incubated at 37±2° C. for 48 hours.
# After 48 hours, the plates were evaluated using a total plate count to determine the biocidal efficacy of each sample.
substance,measurement,setting,value
polyhexamethylene biguanide [PHMB],LOG10 Reduction,22° C.,2.1
same,LOG10 Reduction,30° C.,2.8
same,LOG10 Reduction,40° C.,3.5
same,LOG10 Reduction,50° C.,>3.5
